Patent US20220016063A1, “COMPOSITIONS THAT ENHANCE IRON ABSORPTION AND METHODS OF USE THEREOF” (UNIVERSITY OF FLORDIA RESEARCH FOUNDATION, INCORPORATED, priority 2018, published 2022)

Experiments:
[1] = tested on: Swiss-Webster mice on an Fe-deficient diet; assay: Iron depletion-repletion study (blood hemoglobin); assay type: in vivo; conditions: males, 6.3 mM FeSO4 in control formulation, daily 200 μL gavage, 14 days
Experimental: To establish the amount of iron needed to steadily replete a mouse, the concentration was determined theoretically to be 3.15 mM in a 200 μL gavage dose, based on daily food intake and iron requirement of a rodent (35 mg/kg Fe). Two additional concentrations were included in this study: 1.575 mM and 6.3 mM, which are half and double the theoretical concentration, respectively. A control group was given 0 mM Fe gavage on chow diet to obtain normal Hb values. The Fe was dissolved in control formulation (Table 3). Three-week-old male and female Swiss-Webster mice were placed on an Fe-deficient diet in wire-overhang cages for two weeks. After two weeks baseline hemoglobin (Hb) was measured. Daily gavage began in the evening for 14 days. An additional trial included FeSO4 and ferrous fumarate at 6.3 mM and 12.6 mM per iron source, along with a control group with 0 mM Fe gavage on control diet (50 ppm Fe).
Three-week-old male and female Swiss-Webster mice were placed on an Fe-deficient diet for two weeks. After two weeks baseline hemoglobin (Hb) was measured and mice were randomized into groups so that average starting Hb values are similar. They were gavaged every evening after a 1.5 hour fast (just before the “active” phase) with a 200 μL volume containing 6.3 mM FeSO4 in control or 4 AA formulations. […] Hemoglobin was measured every three days to track repletion. […]

[2] = tested on: duodenal epithelial organ cultures; assay: Ussing chamber 59Fe flux studies; set-up: species or system Swiss-Webster mice; conditions: compared to the other single AAs
Experimental: Ussing chamber technology was utilized to measure Fe flux in the presence of AA formulations. The Ussing chamber was balanced for at least 30 minutes prior to mounting duodenal mouse tissues. Tissues were bathed bilaterally in 10 mL of control or AA-containing buffers, containing 1.5 mM FeSO4.7H2O (“cold” Fe), and were bubbled with a 95% O2 and 5% CO2 gas mixture. Experiments were performed under conditions in which the voltage was clamped to zero, so that there was no net passive diffusion of ions and no driving force for paracellular flux. Duodenal epithelial organ cultures were mounted and equilibrated for approximately 10 minutes and were paired for mucosal-to-serosal and serosal-to-mucosal flux based on similar conductance values. Blank measurements (500 μL) were collected from the “cold” (non-radioactive) side. 15 μCi of ^59Fe (PerkinElmer, catalog #NEZ037500UC) neutralized with N-methyl-D-glucamine (NMDG) was added to each chamber, on either the mucosal or serosal side, depending upon tissue pairing. At 15-minute intervals, 500 μL samples were collected from the “cold” side for 60 minutes, and 500 μL buffer were added back to maintain a fixed volume. […] Radioactivity in the samples was measured using a PerkinElmer gamma counter, and net Fe flux was calculated as Jnet=Jms−Jsm, where Jms is mucosal to serosal flux (absorption) and Jsm is serosal to mucosal flux (secretion). […]

DMT1 = assay: Ligated duodenal loop studies, DMT1 Western blot of BBMV; set-up: species or system Swiss-Webster mice; conditions: single AA formulation pH 6.5 in duodenal loop, 45 min 37 °C; relative to control (expression set to 1)
Experimental: Blind loop studies were conducted on 8-10-week-old male Swiss-Webster mice, as they are a commonly used outbred strain. Males were selected for initial screening purposes, but experiments will be repeated in female mice. Mice were sacrificed and duodenal segments (approximately […]) were isolated and flushed with Ringer's buffer. […] After incubation, the luminal liquid was released. […] A standard protocol for isolating BBM protein was performed for Western blot analysis (described below).
Isolation of Brush-Border Membrane Vesicles (BBMV): A light scrape of the duodenal mucosal was placed in 9.9 mL ice-cold lysis buffer with 0.1 mL Halt Protease Inhibitor Cocktail, EDTA-free 100×. Samples were homogenized on ice using an IKA T25 Ultra Turrax device for 2 min. Following homogenization, 500 μL 1 M MgCl2 was added and the sample was rotated at 4° C. for 10 minutes. Samples were then centrifuged at 10,000 rpm for 25 min using a JA-12 rotor in a Beckman-Coulter ultracentrifuge. The supernatant was transferred to new round-bottom tubes and centrifuged again at 19,000 rpm for 40 minutes using a JA-17 rotor. The remaining pellet after the second centrifugation step contained the BBMVs. The pellet was dissolved in 50 μL Ringer's buffer with protease inhibitor at a final concentration of 1×.
Sodium Dodecyl Sulfate-Polyacrylamide Gel Electrophoresis (SDS-PAGE): Protein samples, each containing 30 μg protein, were mixed with 4× Laemmli buffer and 1 M dithiolthreitol (ratio of buffer to DTT was 20:1) and incubated at 37° C. for 30 minutes. 30 μg of protein was then loaded into each lane of 8% polyacrylamide gels. SDS-PAGE was run at 90 V for 30 minutes and increased to 120 V for the duration of the electrophoresis.
Western Blot: Proteins in gels were transferred to PVDF membranes at 60 V for two hours. […] Membranes were then incubated with DMT1 primary antibody (courtesy of François Canonne-Hergaux, French Institute of Health and Medical Research, Bordeaux, France) at a 1:2000 dilution in Odyssey blocking buffer at 4° C. for at least 16 hours. Blots were rinsed with TBST for 15 minutes under fast agitation for a total of three washes. […] Blots were again rinsed with TBST for 15 minutes under fast agitation for a total of three washes. Blots were subsequently imaged and protein band signals were quantified with a Licor Odyssey CLx immunofluorescent instrument. Protein band intensities were then normalized to total protein of each lane stained with Coomassie (Gel Analyzer software) and all data was normalized to respective control lanes on the same blot.

| SMILES | relative DMT1 protein expression on the BBM (DMT1) | also measured |
| --- | --- | --- |
| O.O.O.O.O.O.O.O=S(=O)([O-])[O-].[Fe+2] [FeSO4] | – | blood hemoglobin during repletion [1]: steady increase |
| NC(=O)CC[C@H](N)C(=O)O [glutamine] | – | net Fe flux with individual AAs from the 4 AA formulation [2]: lowest flux |
| NCCCC[C@H](N)C(=O)O [lysine] | lowest relative DMT1 protein expression | – |
| N[C@@H](CO)C(=O)O [serine] | lowest relative DMT1 protein expression | – |
| C[C@@H](O)[C@H](N)C(=O)O [threonine] | lowest relative DMT1 protein expression | – |
| N[C@@H](Cc1ccc(O)cc1)C(=O)O [tyrosine] | lowest relative DMT1 protein expression | – |
| CC(C)[C@H](N)C(=O)O [valine] | lowest relative DMT1 protein expression | – |
